The results in this text go back to patent publication US9034897B2, “Indanyl-substituted 4,5,6,7-tetrahydro-1H-pyrazolo[4,3-C]pyridines, their use as medicament, and pharmaceutical preparations comprising them” (SANOFI, priority 2011, dated 2015).

Structures are written as SMILES.

In the assay the target is Human TASK-1 channels (Homo sapiens (Human), UniProt O14649). The assay can be described thus: Activity on the TASK-1 channel in Xenopus oocytes (two-microelectrode voltage clamp). Type of assay: cell-based. The settings on record: for IC50: human TASK-1 expressed in Xenopus oocytes, currents during 500 ms pulses to 40 mV, room temperature; for inhibition at 5 µM: percentage inhibition of TASK-1 control current, Xenopus oocytes. As for the experimental part: Determination of the activity on the TASK-1 channel in Xenopus oocytes:
Human TASK-1 channels were expressed in Xenopus oocytes. For this purpose, oocytes were isolated from Xenopus laevis and defolliculated. Subsequently, TASK-1-encoding RNA synthesized in vitro was injected into oocytes. After two days of TASK-1 protein expression, TASK-1 currents were measured by two-microelectrode voltage clamp. Data were acquired and analyzed using a TEC-10cx amplifier (NPI Electronic, Tamm, Germany) connected to an ITC-16 interface (Instrutech Corp., Long Island, USA) and Pulse software (HEKA Elektronik, Lambrecht, Germany). Oocytes were clamped to −90 mV and TASK-1 mediated currents were measured during 500 ms voltage pulses to 40 mV. Oocytes were continuously superfused with ND96 buffer containing: NaCl 96 mM, KCl2 mM, CaCl2 1.8 mM, MgCl2 1 mM, HEPES 5 mM (pH adjusted to 7.4 with NaOH). All experiments were performed at room temperature.
Test substances were consecutively added to the bath solution at rising concentrations. Compound effects were calculated as the percentage inhibition of
TASK-1 control current before compound application. IC50 values were obtained by fitting the data to the general dose-response equation.

Human TASK-1 channels, sequence (O14649 whole entry): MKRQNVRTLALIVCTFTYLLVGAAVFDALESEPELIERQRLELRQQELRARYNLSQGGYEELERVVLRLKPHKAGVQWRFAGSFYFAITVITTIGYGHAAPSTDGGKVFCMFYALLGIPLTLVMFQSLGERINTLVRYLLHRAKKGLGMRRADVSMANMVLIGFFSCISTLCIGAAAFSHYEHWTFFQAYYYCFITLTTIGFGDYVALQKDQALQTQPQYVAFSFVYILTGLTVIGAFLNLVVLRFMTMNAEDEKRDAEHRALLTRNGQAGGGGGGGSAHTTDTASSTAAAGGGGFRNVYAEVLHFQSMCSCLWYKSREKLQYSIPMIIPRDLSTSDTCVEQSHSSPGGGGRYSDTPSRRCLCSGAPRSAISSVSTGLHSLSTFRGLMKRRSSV

`CC(=O)N1CCc2c(c(-c3cccc(C#N)c3)nn2[C@@H]2c3cc(F)cc(C4CC4)c3C[C@H]2O)C1` [Example 20a, 3-[5-Acetyl-1-((1R,2R)-4-cyclopropyl-6-fluoro-2-hydroxy-indan-1-yl)-4,5,6,7-tetrahydro-1H-pyrazolo[4,3-c]pyridin-3-yl]-benzonitrile] showed an IC50 of 500 nM.

For `COc1cc(-c2nn([C@@H]3c4cc(F)cc(F)c4C[C@H]3O)c3c2CN(C(C)=O)CC3)ccc1F` [Example 11y, 1-[1-((1R,2R)-4,6-Difluoro-2-hydroxy-indan-1-yl)-3-(4-fluoro-3-methoxy-phenyl)-1,4,6,7-tetrahydro-pyrazolo[4,3-c]pyridin-5-yl]-ethanone], the IC50 came out at 1920 nM. Against the preceding compound, the IC50 is about 3.8-fold higher.

For the compound `CC(=O)N1CCc2c(c(-c3cccc(F)c3)nn2[C@@H]2c3cc(F)cc(F)c3C[C@H]2O)C1` [Example 11aa, 1-[1-((1R,2R)-4,6-Difluoro-2-hydroxy-indan-1-yl)-3-(3-fluoro-phenyl)-1,4,6,7-tetrahydro-pyrazolo[4,3-c]pyridin-5-yl]-ethanone], the midpoint of inhibition, the IC50, lay at 2220 nM.

`COCC(=O)N1CCc2c(c(-c3cccc(C#N)c3)nn2[C@@H]2c3cc(F)cc(F)c3C[C@H]2O)C1` [Example 14e, 3-[1-((1R,2R)-4,6-Difluoro-2-hydroxy-indan-1-yl)-5-(2-methoxy-acetyl)-4,5,6,7-tetrahydro-1H-pyrazolo[4,3-c]pyridin-3-yl]-benzonitrile] displayed an inhibition at 5 µM of 72%.

The compound `CC(=O)N1CCc2c(c(-c3cccc(C(F)(F)F)n3)nn2[C@@H]2c3cc(Cl)cc(Cl)c3C[C@H]2O)C1` [Example 11m, 1-[1-((1R,2R)-4,6-Dichloro-2-hydroxy-indan-1-yl)-3-(6-trifluoromethyl-pyridin-2-yl)-1,4,6,7-tetrahydro-pyrazolo[4,3-c]pyridin-5-yl]-ethanone] gave an IC50 of 518 nM.

On to `N#Cc1cccc(-c2nn([C@@H]3c4cc(F)cc(F)c4C[C@H]3O)c3c2CN(CCC(F)(F)F)CC3)c1` [Example 18c, 3-[1-((1R,2R)-4,6-Difluoro-2-hydroxy-indan-1-yl)-5-(3,3,3-trifluoro-propyl)-4,5,6,7-tetrahydro-1H-pyrazolo[4,3-c]pyridin-3-yl]-benzonitrile], for which testing at 5 µM gave an inhibition of 91%.

On to `CC(=O)N1CCc2c(c(-c3ccc(F)c(C(F)(F)F)c3)nn2[C@@H]2c3cc(F)cc(F)c3C[C@H]2O)C1` [Example 11f, 1-[1-((1R,2R)-4,6-Difluoro-2-hydroxy-indan-1-yl)-3-(4-fluoro-3-trifluoromethyl-phenyl)-1,4,6,7-tetrahydro-pyrazolo[4,3-c]pyridin-5-yl]-ethanone], for which the IC50 worked out at 270 nM.

As to `CC(=O)N1CCc2c(c(-c3cccc(Cl)c3)nn2[C@H]2c3cc(F)cc(F)c3C[C@@H]2O)C1` [Example 11b, 1-[3-(3-Chloro-phenyl)-1-((1S,2S)-4,6-difluoro-2-hydroxy-indan-1-yl)-1,4,6,7-tetrahydro-pyrazolo[4,3-c]pyridin-5-yl]-ethanone], the IC50 is 190 nM.

In turn, `CC(C)C(=O)N1CCc2c(c(-c3cccc(C#N)c3)nn2[C@@H]2c3cc(F)cc(F)c3C[C@H]2O)C1` [Example 14c, 3-[1-((1R,2R)-4,6-Dif1uoro-2-hydroxy-indan-1-yl)-5-isobutyryl-4,5,6,7-tetrahydro-1H-pyrazolo[4,3-c]pyridin-3-yl]-benzonitrile] registered an IC50 of 250 nM.

For the compound `COc1cccc(-c2nn([C@@H]3c4cc(F)cc(F)c4C[C@H]3O)c3c2CN(C(C)=O)CC3)c1` [Example 11k, 1-[1-((1R,2R)-4,6-Difluoro-2-hydroxy-indan-1-yl)-3-(3-methoxy-phenyl)-1,4,6,7-tetrahydro-pyrazolo[4,3-c]pyridin-5-yl]-ethanone], inhibition was half-maximal at 442 nM (IC50).

Regarding `NC(=O)c1cccc(-c2nn([C@@H]3c4cc(F)cc(F)c4C[C@H]3O)c3c2CN(CCC(F)(F)F)CC3)c1` [Example 18h, 3-[1-((1R,2R)-4,6-Difluoro-2-hydroxy-indan-1-yl)-5-(3,3,3-trifluoro-propyl)-4,5,6,7-tetrahydro-1H-pyrazolo[4,3-c]pyridin-3-yl]-benzamide], the inhibition at 5 µM was found to be 39%.
